According to patent US12227520B2 (priority 2019, dated 2025):
Read-outs that look alike come from different tables or passages of the source.

Key:
HIV-1 (IIIB) = experiment: Antiviral assay in MT-4 cells (HIV MT-4 antiviral assay); format: cell-based; settings: Human immunodeficiency virus 1, IIIB, MT4, 120 h, HIV-1 (IIIB) in MT-4 cells, 5 days incubation; read-out: EC50
Summary of the method: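 MT-4 cells infected with HIV-1 IIIB (1:250 diluted stock) and exposed to 1:3 serially diluted compound in RPMI with 10% FBS. Viability read by CellTiter-Glo luminescence after 5 days at 37° C; mock-infected cells and 5 μM AZT as controls.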

[1] = Cytotoxicity assay in MT-4 cells; format: cell-based, human; settings: human, uninfected MT-4 cells, 5 days incubation; read-out: CC50
Summary of the method: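 Infected MT-4 cells (HIV-1 IIIB, fresh 1:250 dilution of concentrated stock) or mock-infected cells exposed to compounds for 5 days at 37 °C. Viability by CellTiter-Glo luminescence; 5 μM AZT positive control, no-drug negative control. Uninfected cells used for cytotoxicity, with 10 μM puromycin as base-level cytotoxicity control.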

pLai RLuc reporter virus = experiment: microbe, parasite or virus in culture; format: cell-based, HIV; settings: Human immunodeficiency virus 1, 72 h
Summary of the method: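 MT-4 cells pre-infected 2 h at 37 °C with pLai RLuc virus, then exposed to 1:3 serial dilutions of compound in RPMI/10% FBS with or without 50% human serum for 72 h at 37 °C. Renilla luminescence read-out; serum shift = EC50(HS/CCM)/EC50(CCM).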

[2] = read-out: Antiviral Serum Shift RLuc 50% HS, HS/CCM (RPMI media, 10% FBS, 50% HS, 1% P/S), 72-h incubation
[3] = read-out: Antiviral Serum Shift RLuc CCM, CCM (RPMI media, 10% FBS, 1% P/S), 72-h incubation

Row | Compound | EC50 (HIV-1 (IIIB)) | CC50 at 5 days [1] | EC50 (pLai RLuc reporter virus; [2]) | EC50 (pLai RLuc reporter virus; [3])
1 | O=C(NCc1c(F)cc(F)cc1F)c1cn2c(c(O)c1=O)C(=O)N1CCC(F)(F)C[C@H]2C1 [Example 114, (7S)-5,5-difluoro-12-hydroxy-1,11-dioxo-N-(2,4,6-trifluorobenzyl)-1,4,5,6,7,11-hexahydro-3H-2,7-methanopyrido[1,2-a][1,4]diazonine-10-carboxamide] | 2.27 nM | 30500 nM | 1.04 nM | 0.717 nM
2 | O=C(NCc1ccc(F)cc1F)c1cn2c(c(O)c1=O)C(=O)N1CC=CC[C@H]2C1 [Example 47-2, (7S)—N-(2,4-difluorobenzyl)-12-hydroxy-1,11-dioxo-1,6,7,11-tetrahydro-3H-2,7-methanopyrido[1,2-a][1,4]diazonine-10-carboxamide] | 1.16 nM | 8720 nM | 1.01 nM | 0.247 nM
3 | C[C@]1(F)CCCN2C[C@H]1n1cc(C(=O)NCc3ccc(F)cc3F)c(=O)c(O)c1C2=O [Example 60-1, (6S,7R)—N-(2,4-difluorobenzyl)-6-fluoro-12-hydroxy-6-methyl-1,11-dioxo-1,4,5,6,7,11-hexahydro-3H-2,7-methanopyrido[1,2-a][1,4]diazonine-10-carboxamide] | 1.77 nM | 13900 nM | 1.6 nM | 0.457 nM
4 | O=C(NCc1c(F)cc(F)cc1F)c1cn2c(c(O)c1=O)C(=O)N1CC[C@@H](F)C[C@@H]2C1 [Example 73-2, (5R, 7R)-5-fluoro-12-hydroxy-1,11-dioxo-N-(2,4,6-trifluorobenzyl)-1,4,5,6,7,11-hexahydro-3H-2,7-methanopyrido[1,2-a][1,4]diazonine-10-carboxamide] | 1.82 nM | 23100 nM | 0.919 nM | 0.283 nM
5 | O=C(NCc1ccc(F)c(Cl)c1Cl)c1cn2c(c(O)c1=O)C(=O)N1CCCC[C@H]2C1 [Example 62, (7S)—N-(2,3-dichloro-4-fluorobenzyl)-12-hydroxy-1,11-dioxo-1,4,5,6,7,11-hexahydro-3H-2,7-methanopyrido[1,2-a][1,4]diazonine-10-carboxamide] | 1.27 nM | 3460 nM | 4.22 nM | 0.292 nM
6 | O=C(NCc1ccc(F)cc1F)c1cn2c(c(O)c1=O)C(=O)N1CCC=C[C@H]2C1 [Example 169, (7S)—N-(2,4-difluorobenzyl)-12-hydroxy-1,11-dioxo-1,4,7,11-tetrahydro-3H-2,7-methanopyrido[1,2-a][1,4]diazonine-10-carboxamide] | 1.4 nM | 11800 nM | 2.89 nM | 0.322 nM
7 | O=C(NCc1ccc(F)cc1F)c1cn2c(c(O)c1=O)C(=O)N1CCCC[C@@]2(CF)C1 [Example 162-1, (7S)—N-(2,4-difluorobenzyl)-7-(fluoromethyl)-12-hydroxy-1,11-dioxo-1,4,5,6,7,11-hexahydro-3H-2,7-methanopyrido[1,2-a][1,4]diazonine-10-carboxamide] | 1.14 nM | 16200 nM | 11.9 nM | 0.067 nM
8 | O=C(NCc1c(F)cc(F)cc1F)c1cn2c(c(O)c1=O)C(=O)N1C[C@@H]2CCC[C@@H]1C(F)F [Example 131, (3R, 7S)-3-(difluoromethyl)-12-hydroxy-1,11-dioxo-N-(2,4,6-trifluorobenzyl)-1,4,5,6,7,11-hexahydro-3H-2,7-methanopyrido[1,2-a][1,4]diazonine-10-carboxamide] | 1.68 nM | 10200 nM | 11 nM | 0.25 nM
9 | O=C(NCc1c(F)cc(F)cc1F)c1cn2c(c(O)c1=O)C(=O)N1CCC[C@@H](F)[C@@H]2C1 [Example 15-1, (6R,7S)-6-fluoro-12-hydroxy-1,11-dioxo-N-(2,4,6-trifluorobenzyl)-1,4,5,6,7,11-hexahydro-3H-2,7-methanopyrido[1,2-a][1,4]diazonine-10-carboxamide] | 1.7 nM | 18300 nM | 11.6 nM | 0.32 nM
10 | O=C(NCc1c(F)cc(F)cc1F)c1cn2c(c(O)c1=O)C(=O)N1Cc3ccc(Cl)cc3C[C@H]2C1 (single isomer, unassigned) [Example 127-1] | 1.38 nM | 5630 nM | 2.93 nM | 0.324 nM
11 | O=C(NCc1ccc(F)cc1F)c1cn2c(c(O)c1=O)C(=O)N1C[C@@H](F)CC[C@H]2C1 (single isomer, unassigned) [Example 53-2] | 6.2 nM | 28400 nM | 2.27 nM | 1.58 nM
12 | O=C(NCc1ccc(F)c(Cl)c1F)c1cn2c(c(O)c1=O)C(=O)N1CCCC[C@H]2C1 [Example 51, (7S)—N-(3-chloro-2,4-difluorobenzyl)-12-hydroxy-1,11-dioxo-1,4,5,6,7,11-hexahydro-3H-2,7-methanopyrido[1,2-a][1,4]diazonine-10-carboxamide] | 1.17 nM | 4390 nM | 2.14 nM | 0.215 nM
13 | O=C(NCc1ccc(F)cc1F)c1cn2c(c(O)c1=O)C(=O)N1C[C@@H]2CCC[C@@H]1CF [Example 165, (3R,7S)—N-(2,4-difluorobenzyl)-3-(fluoromethyl)-12-hydroxy-1,11-dioxo-1,4,5,6,7,11-hexahydro-3H-2,7-methanopyrido[1,2-a][1,4]diazonine-10-carboxamide] | 1.1 nM | 9610 nM | 7.33 nM | 0.351 nM
14 | O=C(NCc1c(F)cc(F)cc1F)c1cn2c(c(O)c1=O)C(=O)N1C[C@H](O)CC[C@H]2C1 (single isomer, unassigned) [Example 79-2] | 17.7 nM | > 50000 nM | 6.61 nM | 5.33 nM
15 | C[C@]1(F)CCCN2C[C@@H]1n1cc(C(=O)NCc3ccc(F)cc3F)c(=O)c(O)c1C2=O (single isomer, unassigned) [Example 60-2] | 1.97 nM | 14000 nM | 102 nM | 0.328 nM
16 | C[C@]12Cc3cc(F)c(F)cc3CN(C1)C(=O)c1c(O)c(=O)c(C(=O)NCc3c(F)cc(F)cc3F)cn12 (single isomer, unassigned) [Example 191-2] | 1.44 nM | 11800 nM | 1.93 nM | 0.361 nM
17 | O=C(NCc1c(F)cc(F)cc1F)c1cn2c(c(O)c1=O)C(=O)N1CCc3cc(F)c(F)cc3[C@H]2C1 (single isomer, unassigned) [Example 110-1] | 2 nM | 9870 nM | 2.75 nM | 0.323 nM
18 | C[C@@H]1CC[C@H](C)N2C[C@H]1n1cc(C(=O)NCc3c(F)cc(F)cc3F)c(=O)c(O)c1C2=O [Example 174, (3S,6R,7S)-12-hydroxy-3,6-dimethyl-1,11-dioxo-N-(2,4,6-trifluorobenzyl)-1,4,5,6,7,11-hexahydro-3H-2,7-methanopyrido[1,2-a][1,4]diazonine-10-carboxamide] | 1.26 nM | 11400 nM | 58.4 nM | 0.346 nM
19 | O=C(NCc1c(F)cc(F)cc1F)c1cn2c(c(O)c1=O)C(=O)N1C[C@@H]2CCc2sccc21 [Example 104-1, (11S)-6-hydroxy-5,7-dioxo-N-(2,4,6-trifluorobenzyl)-5,7,12,13-tetrahydro-11H-4,11-methanopyrido[1,2-a]thieno[3,2-e][1,4]diazonine-8-carboxamide] | 1.48 nM | 11900 nM | 1.99 nM | 0.323 nM
20 | C[C@H]1CC[C@H](F)[C@H]2CN1C(=O)c1c(O)c(=O)c(C(=O)NCc3c(F)cc(F)cc3F)cn12 [Example 157, (3S,6S,7R)-6-fluoro-12-hydroxy-3-methyl-1,11-dioxo-N-(2,4,6-trifluorobenzyl)-1,4,5,6,7,11-hexahydro-3H-2,7-methanopyrido[1,2-a][1,4]diazonine-10-carboxamide] | 5.36 nM | 23700 nM | 5.75 nM | 1.61 nM
21 | C[C@H]1C=C[C@H](C)N2C[C@H]1n1cc(C(=O)NCc3c(F)cc(F)cc3F)c(=O)c(O)c1C2=O [Example 183, (3S,6S,7S)-12-hydroxy-3,6-dimethyl-1,11-dioxo-N-(2,4,6-trifluorobenzyl)-1,6,7,11-tetrahydro-3H-2,7-methanopyrido[1,2-a][1,4]diazonine-10-carboxamide] | 0.869 nM | 10500 nM | 5.71 nM | 0.262 nM
22 | C[C@]12CC=CCN(C1)C(=O)c1c(O)c(=O)c(C(=O)NCc3ccc(F)cc3F)cn12 [Example 168, (7S)—N-(2,4-difluorobenzyl)-12-hydroxy-7-methyl-1,11-dioxo-1,6,7,11-tetrahydro-3H-2,7-methanopyrido[1,2-a][1,4]diazonine-10-carboxamide] | 1.75 nM | 13700 nM | 41.3 nM | 0.187 nM
23 | C[C@]1(F)CCN2C[C@H](C1)n1cc(C(=O)NCc3c(F)cc(F)cc3F)c(=O)c(O)c1C2=O [Example 115-1, (5S,7S)-5-fluoro-12-hydroxy-5-methyl-1,11-dioxo-N-(2,4,6-trifluorobenzyl)-1,4,5,6,7,11-hexahydro-3H-2,7-methanopyrido[1,2-a][1,4]diazonine-10-carboxamide] | 1.48 nM | 12200 nM | 0.713 nM | 0.271 nM
